Measurements as given in patent publication US9347934B2, “Assays for identifying compounds that modulate bitter taste” (CHROMOCELL CORPORATION, priority 2011, dated 2016).

Tests used:
Type in all cases: cell-based
TAS2R48 = target: T1, TAS2R48 (Homo sapiens, UniProt P59542); experiment: Calcium fluorescence functional assay, TAS2R48 cell line; conditions: 20 mM tastant; cell line expressing human TAS2R48 and mouse Gα15
T1 construct: expressed in transfected cells
T1 sequence (P59542 1-299): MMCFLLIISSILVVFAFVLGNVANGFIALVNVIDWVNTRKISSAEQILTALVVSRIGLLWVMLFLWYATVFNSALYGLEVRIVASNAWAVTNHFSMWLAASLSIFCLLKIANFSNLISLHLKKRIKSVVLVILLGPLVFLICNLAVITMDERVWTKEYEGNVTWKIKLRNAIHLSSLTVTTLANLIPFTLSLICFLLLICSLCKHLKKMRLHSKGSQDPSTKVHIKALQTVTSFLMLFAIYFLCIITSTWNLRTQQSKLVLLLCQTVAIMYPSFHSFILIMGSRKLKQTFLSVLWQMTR
Protocol: (§1) Accordingly, each cell line of the panel expressed a human bitter taste receptor and mouse Gα15 signaling protein.
(§2) Probenecid was not included in the load solution.
(§3) After dye loading, cell plates were placed in a fluorescent plate reader (e.g., FDSS6000 (Hamamatsu, Japan)) and receptor stimulation was measured by adding 50 ul of 3× concentrated ligand/agonist stock. Fluorescence was monitored continuously for 10 s before agonist addition and for 100-250 s after stimulation with agonist.
(§4) Receptor Activation is defined as follows: % Activation=[((Maximum signal fluorescence−Minimum signal fluorescence)−(Maximum control fluorescence−Minimum control fluorescence))/(Maximum buffer fluorescence−Minimum buffer fluorescence)]*100 Functional Response=[(Maximum signal fluorescence−Minimum signal fluorescence)−(Maximum control fluorescence−Minimum control fluorescence)] • Signal Fluorescence: refers to the change in fluorescence seen with addition of ligand • Control fluorescence: refers to the change in fluorescence seen with addition of buffer (negative control) • Calcium signals from ligand and control were normalized to the basal fluorescence of the cells prior to the stimulation.
(§5) A concentration analysis was performed and EC50 values were calculated by nonlinear regression using the formula: Y=Bottom+(Top-Bottom)/(1+10^((Log EC50-X)*Hill Slope)), X=log of dose or concentration, Y=Response (increasing as X increases), Top=maximum signal, Bottom=minimum signal.

TAS2R16 = target: T2, TAS2R16 (Homo sapiens, UniProt Q9NYV7); experiment: Calcium fluorescence functional assay, TAS2R16 cell line; conditions: 20 mM tastant; cell line expressing human TAS2R16 and mouse Gα15
T2 construct: expressed in transfected cells
T2 sequence (Q9NYV7 1-291): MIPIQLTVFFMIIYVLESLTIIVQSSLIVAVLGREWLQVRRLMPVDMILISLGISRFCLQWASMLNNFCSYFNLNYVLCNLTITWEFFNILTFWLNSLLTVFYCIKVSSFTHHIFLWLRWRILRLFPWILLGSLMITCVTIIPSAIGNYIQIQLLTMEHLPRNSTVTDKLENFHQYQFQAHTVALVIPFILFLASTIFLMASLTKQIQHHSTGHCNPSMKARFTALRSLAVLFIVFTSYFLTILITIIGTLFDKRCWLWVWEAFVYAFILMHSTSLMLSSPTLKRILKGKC
Protocol: as §1, §2, §3, §4, §5

TAS2R45 = target: T3, TAS2R45 (Homo sapiens, UniProt P59539); experiment: Calcium fluorescence functional assay, TAS2R45 cell line; conditions: 20 mM tastant; cell line expressing human TAS2R45 and mouse Gα15
T3 construct: expressed in transfected cells
T3 sequence (P59539 1-299): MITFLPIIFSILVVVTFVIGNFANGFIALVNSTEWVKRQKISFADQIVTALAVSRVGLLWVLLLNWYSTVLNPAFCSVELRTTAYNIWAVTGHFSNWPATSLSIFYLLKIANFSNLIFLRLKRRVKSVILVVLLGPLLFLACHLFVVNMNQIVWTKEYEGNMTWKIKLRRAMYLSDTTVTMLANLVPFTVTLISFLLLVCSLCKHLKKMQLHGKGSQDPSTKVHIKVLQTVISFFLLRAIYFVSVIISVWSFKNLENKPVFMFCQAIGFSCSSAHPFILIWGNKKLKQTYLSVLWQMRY
Protocol: as §1, §2, §3, §4, §5

TAS2R50 = target: T4, TAS2R50 (Homo sapiens, UniProt P59544); experiment: Calcium fluorescence functional assay, TAS2R50 cell line; conditions: 20 mM tastant; cell line expressing human TAS2R50 and mouse Gα15
T4 construct: expressed in transfected cells
T4 sequence (P59544 1-299): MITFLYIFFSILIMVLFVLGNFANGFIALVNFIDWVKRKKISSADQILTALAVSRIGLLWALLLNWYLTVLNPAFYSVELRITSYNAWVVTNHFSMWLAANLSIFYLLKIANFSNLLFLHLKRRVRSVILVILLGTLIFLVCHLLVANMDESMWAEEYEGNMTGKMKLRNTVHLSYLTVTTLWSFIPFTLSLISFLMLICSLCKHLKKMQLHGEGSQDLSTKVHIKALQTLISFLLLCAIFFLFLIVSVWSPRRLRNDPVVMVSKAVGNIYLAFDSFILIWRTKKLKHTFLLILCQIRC
Protocol: as §1, §2, §3, §4, §5

TAS2R60 = target: T5, TAS2R60 (Homo sapiens, UniProt P59551); experiment: Calcium fluorescence functional assay, TAS2R60 cell line; conditions: for TAS2R60 bitter taste receptor activity (changes in intracellular calcium): 20 mM tastant, cell line expressing human TAS2R60 and mouse Gα15
T5 construct: expressed in transfected cells
T5 sequence (P59551 1-318): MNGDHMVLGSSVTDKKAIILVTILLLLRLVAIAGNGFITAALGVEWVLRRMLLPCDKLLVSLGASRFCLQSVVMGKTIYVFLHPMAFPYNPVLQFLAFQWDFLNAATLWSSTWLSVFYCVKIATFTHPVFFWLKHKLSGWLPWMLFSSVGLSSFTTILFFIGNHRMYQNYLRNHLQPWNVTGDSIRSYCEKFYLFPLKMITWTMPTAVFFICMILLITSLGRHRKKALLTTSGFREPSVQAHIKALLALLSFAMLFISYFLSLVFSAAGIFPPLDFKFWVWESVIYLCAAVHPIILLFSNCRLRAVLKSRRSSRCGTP
Protocol: as §1, §2, §3, §4, §5

TAS2R8 = target: T6, TAS2R8 (Homo sapiens, UniProt Q9NYW2); experiment: Calcium fluorescence functional assay, TAS2R8 cell line; conditions: 20 mM tastant; cell line expressing human TAS2R8 and mouse Gα15
T6 construct: expressed in transfected cells
T6 sequence (Q9NYW2 1-309): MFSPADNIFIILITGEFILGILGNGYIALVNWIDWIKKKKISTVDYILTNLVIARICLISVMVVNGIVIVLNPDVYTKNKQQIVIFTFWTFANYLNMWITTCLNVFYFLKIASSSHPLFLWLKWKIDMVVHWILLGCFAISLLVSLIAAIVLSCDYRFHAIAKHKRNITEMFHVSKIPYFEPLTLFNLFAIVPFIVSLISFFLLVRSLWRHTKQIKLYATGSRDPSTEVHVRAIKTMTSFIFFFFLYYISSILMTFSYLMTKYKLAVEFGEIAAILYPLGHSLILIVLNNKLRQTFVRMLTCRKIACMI
Protocol: as §1, §2, §3, §4, §5

CC1=CC(=O)NS(=O)(=O)O1 [Acesulfame K]
TAS2R48 bitter taste receptor activity (changes in intracellular calcium) (TAS2R48): did not induce
TAS2R16 bitter taste receptor activity (changes in intracellular calcium) (TAS2R16): induced
TAS2R45 bitter taste receptor activity (changes in intracellular calcium) (TAS2R45): did not induce
TAS2R50 bitter taste receptor activity (changes in intracellular calcium) (TAS2R50): did not induce
TAS2R60 bitter taste receptor activity (changes in intracellular calcium) (TAS2R60): did not induce
TAS2R8 bitter taste receptor activity (changes in intracellular calcium) (TAS2R8): did not induce

[Cl-].[K+] [KCl, potassium chloride]
TAS2R48 bitter taste receptor activity (changes in intracellular calcium) (TAS2R48): did not induce
TAS2R16 bitter taste receptor activity (changes in intracellular calcium) (TAS2R16): did not induce
TAS2R45 bitter taste receptor activity (changes in intracellular calcium) (TAS2R45): did not induce
TAS2R50 bitter taste receptor activity (changes in intracellular calcium) (TAS2R50): did not induce
TAS2R60 bitter taste receptor activity (changes in intracellular calcium) (TAS2R60): induced
EC50 (TAS2R60; increasing concentrations of KCl, TAS2R60 cell line (FIG. 3), read-out: EC50 value, activation of TAS2R60): 5 to 15 mM
TAS2R8 bitter taste receptor activity (changes in intracellular calcium) (TAS2R8): did not induce

CC(O)C(=O)[O-].[K+] (stereo not shown) [Potassium lactate, potassium lactate]
TAS2R48 bitter taste receptor activity (changes in intracellular calcium) (TAS2R48): did not induce
TAS2R16 bitter taste receptor activity (changes in intracellular calcium) (TAS2R16): did not induce
TAS2R45 bitter taste receptor activity (changes in intracellular calcium) (TAS2R45): did not induce
TAS2R50 bitter taste receptor activity (changes in intracellular calcium) (TAS2R50): did not induce
TAS2R60 bitter taste receptor activity (changes in intracellular calcium) (TAS2R60): induced
TAS2R8 bitter taste receptor activity (changes in intracellular calcium) (TAS2R8): did not induce
